# Read-outs that look alike come from different tables or passages of the source.
# Biological target: PI3K alpha (Homo sapiens, UniProt P42336)
# Assay: PI3K-α assay (ADP-Glo enzyme inhibition)
# Type: biochemical
# Details: at 500 nm
# Description: Compounds were evaluated for their ability to inhibit class I PI3-kinase enzyme alpha as given below. PI3K-α Assay: PI3K alpha (diluted in 12.5 mM Glycine-NaOH (pH 8.5), 50 mM KCl, 2.5 mM MgCl2, 1 mM DTT, 0.05% CHAPS) is assayed in total volume of 20 ul containing 12.5 mM glycine-NaOH (pH 8.5), 50 mM KCl, 2.5 mM MgCl2, 1 mM DTT, 0.05% CHAPS, 0.01 mM ATP and 0.05 mM diC8 PIP2. The enzyme is assayed for 80 min after which 20 ul of ADP-Glo reagent is added. After a further incubation of 40 min, 40 ul of Kinase Detection Buffer is added. The assays are incubated for 40 min and then read on PerkinElmer Envision for 1 sec/well.
# [1] = read-out: In vitro PI3K α % of inhibition
# [2] = read-out: inhibition against PI3K alpha
# PI3K alpha, sequence (P42336 whole entry, species assumed): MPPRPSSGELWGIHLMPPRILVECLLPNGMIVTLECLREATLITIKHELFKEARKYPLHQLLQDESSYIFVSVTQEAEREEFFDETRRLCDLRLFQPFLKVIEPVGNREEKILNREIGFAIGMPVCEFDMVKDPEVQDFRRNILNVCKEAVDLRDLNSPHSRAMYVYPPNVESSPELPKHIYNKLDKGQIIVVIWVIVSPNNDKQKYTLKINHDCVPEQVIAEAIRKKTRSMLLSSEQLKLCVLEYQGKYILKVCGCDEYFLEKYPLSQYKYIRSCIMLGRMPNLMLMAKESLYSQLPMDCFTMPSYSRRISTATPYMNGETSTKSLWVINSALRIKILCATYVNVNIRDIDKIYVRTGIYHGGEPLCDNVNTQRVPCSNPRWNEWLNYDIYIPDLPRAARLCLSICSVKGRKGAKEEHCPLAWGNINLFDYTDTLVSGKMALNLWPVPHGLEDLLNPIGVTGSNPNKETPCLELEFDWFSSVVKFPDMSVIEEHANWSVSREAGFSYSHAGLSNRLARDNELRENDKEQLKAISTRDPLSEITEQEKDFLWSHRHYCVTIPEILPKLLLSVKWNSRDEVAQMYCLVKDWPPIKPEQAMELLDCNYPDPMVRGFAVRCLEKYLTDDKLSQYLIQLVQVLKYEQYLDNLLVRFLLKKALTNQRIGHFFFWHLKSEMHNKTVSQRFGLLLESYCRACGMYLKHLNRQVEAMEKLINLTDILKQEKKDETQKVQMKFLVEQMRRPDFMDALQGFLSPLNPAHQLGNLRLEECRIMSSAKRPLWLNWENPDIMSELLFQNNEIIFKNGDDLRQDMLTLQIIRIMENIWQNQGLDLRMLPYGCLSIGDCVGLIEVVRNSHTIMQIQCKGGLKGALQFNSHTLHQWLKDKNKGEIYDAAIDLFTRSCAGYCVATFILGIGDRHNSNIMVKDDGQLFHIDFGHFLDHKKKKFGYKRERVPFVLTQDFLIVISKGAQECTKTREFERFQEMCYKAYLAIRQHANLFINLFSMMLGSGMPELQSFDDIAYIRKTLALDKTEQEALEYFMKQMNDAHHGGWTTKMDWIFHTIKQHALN
# PI3K alpha, sequence (P27986 whole entry partner, species assumed): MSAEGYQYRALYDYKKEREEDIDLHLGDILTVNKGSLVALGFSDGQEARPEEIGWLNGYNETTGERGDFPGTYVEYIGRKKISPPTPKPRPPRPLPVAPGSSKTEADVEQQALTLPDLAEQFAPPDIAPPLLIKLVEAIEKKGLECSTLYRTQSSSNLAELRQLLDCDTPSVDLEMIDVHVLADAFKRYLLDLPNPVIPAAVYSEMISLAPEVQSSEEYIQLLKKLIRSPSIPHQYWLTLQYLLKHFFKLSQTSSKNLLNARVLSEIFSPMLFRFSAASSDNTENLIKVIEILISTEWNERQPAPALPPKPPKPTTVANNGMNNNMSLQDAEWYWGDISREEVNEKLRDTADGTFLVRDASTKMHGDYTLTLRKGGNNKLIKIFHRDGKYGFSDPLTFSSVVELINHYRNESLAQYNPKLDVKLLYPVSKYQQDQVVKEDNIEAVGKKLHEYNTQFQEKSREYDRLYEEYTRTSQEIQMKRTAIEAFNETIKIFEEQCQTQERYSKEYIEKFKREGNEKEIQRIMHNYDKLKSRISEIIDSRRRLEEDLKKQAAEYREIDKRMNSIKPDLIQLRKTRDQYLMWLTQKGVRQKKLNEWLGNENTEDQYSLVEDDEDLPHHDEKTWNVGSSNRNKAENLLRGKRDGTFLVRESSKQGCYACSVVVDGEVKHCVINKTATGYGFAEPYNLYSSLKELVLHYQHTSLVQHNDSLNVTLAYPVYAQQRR
Structure (SMILES),inhibition at 0.5 µM [1],inhibition at 0.5 µM [2]
"Cc1ccc(OC2CCN(c3nc(N4CCOCC4)nc(-n4c(C(F)F)nc5ccccc54)n3)CC2)cc1 [1B10, 4-(4-(2-(difluoromethyl)-1H-benzo[d]imidazol-1-yl)-6-(4-(p-tolyloxy)piperidin-1-yl)-1,3,5-triazin-2-yl)morpholine]",50 to 70%,–
"FC(F)(F)c1ccccc1OC1CCN(c2nc(N3CCOCC3)nc(N(c3ccccc3)c3ccccc3)n2)CC1 [1A19, 4-morpholino-N,N-diphenyl-6-(4-(2-(trifluoromethyl)phenoxy)piperidin-1-yl)-1,3,5-triazin-2-amine]",> 70%,> 70%
"FC(F)c1nc2ccccc2n1-c1nc(N2CCOCC2)nc(N2CCC(Oc3ccccc3C(F)(F)F)CC2)n1 [1B4, 4-(4-(2-(difluoromethyl)-1H-benzo[d]imidazol-1-yl)-6-(4-(2-(trifluoromethyl)phenoxy)piperidin-1-yl)-1,3,5-triazin-2-yl)morpholine]",> 70%,> 70%
"CN(c1ccc(F)cc1)c1nc(N2CCOCC2)nc(N2CCC(Oc3ccc(F)cc3)CC2)n1 [1A3, 4-(4-(4-fluorophenoxy)piperidin-1-yl)-N-(4-fluorophenyl)-N-methyl-6-morpholino-1,3,5-triazin-2-amine]",> 70%,> 70%
"CN(c1ccccc1)c1nc(N2CCOCC2)nc(N2CCC(Oc3ccccc3F)CC2)n1 [1A2, 4-(4-(2-fluorophenoxy)piperidin-1-yl)-N-methyl-6-morpholino-N-phenyl-1,3,5-triazin-2-amine]",50 to 70%,–
"Cc1ccc(OC2CCN(c3nc(N4CCOCC4)nc(-n4cnc5cc(F)ccc54)n3)CC2)cc1 [1B13, 4-(4-(5-fluoro-1H-benzo[d]imidazol-1-yl)-6-(4-(p-tolyloxy)piperidin-1-yl)-1,3,5-triazin-2-yl)morpholine]",50 to 70%,–
"CN(C(=O)C(F)(F)F)c1nc(N2CCOCC2)nc(N2CCC(Oc3ccc(F)cc3)CC2)n1 [1A15, 2,2,2-trifluoro-N-(4-(4-(4-fluorophenoxy)piperidin-1-yl)-6-morpholino-1,3,5-triazin-2-yl)-N-methylacetamide]",> 70%,> 70%
"O=C(N(C(=O)C(F)(F)F)c1nc(N2CCOCC2)nc(N2CCC(Oc3ccc(F)cc3)CC2)n1)C(F)(F)F [1A13, 2,2,2-trifluoro-N-(4-(4-(4-fluorophenoxy)piperidin-1-yl)-6-morpholino-1,3,5-triazin-2-yl)-N-(2,2,2-trifluoroacetyl)acetamide]",50 to 70%,–
"Fc1ccccc1OC1CCN(c2nc(N3CCOCC3)nc(-n3c(C(F)F)nc4ccccc43)n2)CC1 [1B9, 4-(4-(2-(difluoromethyl)-1H-benzo[d]imidazol-1-yl)-6-(4-(2-fluorophenoxy)piperidin-1-yl)-1,3,5-triazin-2-yl)morpholine]",50 to 70%,–
"COc1cccc(NC2CCN(c3nc(N4CCOCC4)nc(-n4c(C(F)F)nc5ccccc54)n3)CC2)c1 [1B31, 1-(4-(2-(difluoromethyl)-1H-benzo[d]imidazol-1-yl)-6-morpholino-1,3,5-triazin-2-yl)-N-(3-methoxyphenyl)piperidin-4-amine]",> 70%,> 70%
"CN(C)c1nc(N2CCOCC2)nc(N2CCC(Oc3ccc(F)cc3)CC2)n1 [1A17, 4-(4-(4-fluorophenoxy)piperidin-1-yl)-N,N-dimethyl-6-morpholino-1,3,5-triazin-2-amine]",50 to 70%,–
"CN(c1ccccc1)c1nc(N2CCOCC2)nc(N2CCC(Oc3ccc(F)cc3)CC2)n1 [1A1, 4-(4-(4-fluorophenoxy)piperidin-1-yl)-N-methyl-6-morpholino-N-phenyl-1,3,5-triazin-2-amine]",50 to 70%,–
"FC(F)(F)Oc1ccc(OC2CCN(c3nc(N4CCOCC4)nc(N(c4ccccc4)c4ccccc4)n3)CC2)cc1 [1A20, 4-morpholino-N,N-diphenyl-6-(4-(4-(trifluoromethoxy)phenoxy)piperidin-1-yl)-1,3,5-triazin-2-amine]",50 to 70%,–
"FC(F)(F)Oc1ccc(OC2CCN(c3nc(N4CCOCC4)nc(-n4cnc5ccccc54)n3)CC2)cc1 [1B16, 4-(4-(1H-benzo[d]imidazol-1-yl)-6-(4-(4-(trifluoromethoxy)phenoxy)piperidin-1-yl)-1,3,5-triazin-2-yl)morpholine]",50 to 70%,–
"Fc1ccc(NC2CCN(c3nc(N4CCOCC4)nc(-n4c(C(F)F)cc5ccccc54)n3)CC2)cc1 [1B46, 1-(4-(2-(difluoromethyl)-1H-indol-1-yl)-6-morpholino-1,3,5-triazin-2-yl)-N-(4-fluorophenyl)piperidin-4-amine]",50 to 70%,–
"Fc1ccccc1NC1CCN(c2nc(N3CCOCC3)nc(-n3cnc4ccccc43)n2)CC1 [1B38, 1-(4-(1H-benzo[d]imidazol-1-yl)-6-morpholino-1,3,5-triazin-2-yl)-N-(2-fluorophenyl)piperidin-4-amine]",50 to 70%,–
"O=C(N(c1ccc(F)cc1)c1nc(N2CCOCC2)nc(N2CCC(Oc3ccc(F)cc3)CC2)n1)C(F)(F)F [1A6, 2,2,2-trifluoro-N-(4-(4-(4-fluorophenoxy)piperidin-1-yl)-6-morpholino-1,3,5-triazin-2-yl)-N-(4-fluorophenyl)acetamide]",> 70%,> 70%
"Clc1ccccc1NC1CCN(c2nc(N3CCOCC3)nc(-n3cnc4ccccc43)n2)CC1 [1B39, 1-(4-(1H-benzo[d]imidazol-1-yl)-6-morpholino-1,3,5-triazin-2-yl)-N-(2-chlorophenyl)piperidin-4-amine]",50 to 70%,–
"FC(F)(F)c1ccc(OC2CCN(c3nc(N4CCOCC4)nc(-n4cnc5ccccc54)n3)CC2)cc1 [1B15, 4-(4-(1H-benzo[d]imidazol-1-yl)-6-(4-(4-(trifluoromethyl)phenoxy)piperidin-1-yl)-1,3,5-triazin-2-yl)morpholine]",> 70%,> 70%
"FC(F)(F)c1ccc(NC2CCN(c3nc(N4CCOCC4)nc(-n4cnc5ccccc54)n3)CC2)cc1 [1B35, 1-(4-(1H-benzo[d]imidazol-1-yl)-6-morpholino-1,3,5-triazin-2-yl)-N-(4-(trifluoromethyl)phenyl)piperidin-4-amine]",50 to 70%,–
"O=C(N(c1ccccc1)c1nc(N2CCOCC2)nc(N2CCC(Oc3ccccc3C(F)(F)F)CC2)n1)C(F)(F)F [1A10, 2,2,2-trifluoro-N-(4-morpholino-6-(4-(2-(trifluoromethyl)phenoxy)piperidin-1-yl)-1,3,5-triazin-2-yl)-N-phenylacetamide]",> 70%,> 70%
"Fc1ccccc1OC1CCN(c2nc(N3CCOCC3)nc(-n3cnc4ccccc43)n2)CC1 [1B18, 4-(4-(1H-benzo[d]imidazol-1-yl)-6-(4-(2-fluorophenoxy)piperidin-1-yl)-1,3,5-triazin-2-yl)morpholine]",> 70%,> 70%
"Fc1cccc(OC2CCN(c3nc(N4CCOCC4)nc(-n4c(C(F)F)nc5ccccc54)n3)CC2)c1 [1B8, 4-(4-(2-(difluoromethyl)-1H-benzo[d]imidazol-1-yl)-6-(4-(3-fluorophenoxy)piperidin-1-yl)-1,3,5-triazin-2-yl)morpholine]",> 70%,> 70%
"Cc1ccc(OC2CCN(c3nc(N(C)C)nc(N4CCOCC4)n3)CC2)cc1 [1A16, N,N-dimethyl-4-morpholino-6-(4-(p-tolyloxy)piperidin-1-yl)-1,3,5-triazin-2-amine]",50 to 70%,–

# Reference: patent US9951040B2, “1,3,5 -triazine based PI3K inhibitors as anticancer agents and a process for the preparation thereof” (Council of Scientific and Industrial Research, priority 2014, dated 2018)
